Measured values: patent publication US20240287076A1, “COMPOUNDS FOR TARGETING DEGRADATION OF BRUTON'S TYROSINE KINASE” (BIOGEN MA INC., priority 2021, published 2024)

Target: T1, BTK (Homo sapiens, UniProt Q06187)
T1 construct: The GM01501.3 cell line endogenously expresses BTK with a HiBiT fusion tag via CRISPR knock-in at its C-terminal region; endogenous in cells; host or cells: GM01501.3 (GM01501 cells engineered by CRISPR knock-in of HiBiT at the BTK locus)
Assay: BTK degradation assay using the HiBiT Method (Nano-Glo HiBiT Lytic Assay, GM01501.3 cells)
Type: cell-based
Conditions: HiBiT Degradation on GM01501.3 BTK @ 6 hours
Method in brief: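 CRISPR knock-in GM01501.3 cells expressing endogenous BTK with C-terminal HiBiT tag, treated 6 h at 37 °C with compounds, 11-point half-log titration from 10 μM top, duplicates. Remaining BTK quantified by Nano-Glo HiBiT lytic luminescence versus DMSO controls; DC50 reported.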

T1 sequence (Q06187 whole entry, the tested form may be a part): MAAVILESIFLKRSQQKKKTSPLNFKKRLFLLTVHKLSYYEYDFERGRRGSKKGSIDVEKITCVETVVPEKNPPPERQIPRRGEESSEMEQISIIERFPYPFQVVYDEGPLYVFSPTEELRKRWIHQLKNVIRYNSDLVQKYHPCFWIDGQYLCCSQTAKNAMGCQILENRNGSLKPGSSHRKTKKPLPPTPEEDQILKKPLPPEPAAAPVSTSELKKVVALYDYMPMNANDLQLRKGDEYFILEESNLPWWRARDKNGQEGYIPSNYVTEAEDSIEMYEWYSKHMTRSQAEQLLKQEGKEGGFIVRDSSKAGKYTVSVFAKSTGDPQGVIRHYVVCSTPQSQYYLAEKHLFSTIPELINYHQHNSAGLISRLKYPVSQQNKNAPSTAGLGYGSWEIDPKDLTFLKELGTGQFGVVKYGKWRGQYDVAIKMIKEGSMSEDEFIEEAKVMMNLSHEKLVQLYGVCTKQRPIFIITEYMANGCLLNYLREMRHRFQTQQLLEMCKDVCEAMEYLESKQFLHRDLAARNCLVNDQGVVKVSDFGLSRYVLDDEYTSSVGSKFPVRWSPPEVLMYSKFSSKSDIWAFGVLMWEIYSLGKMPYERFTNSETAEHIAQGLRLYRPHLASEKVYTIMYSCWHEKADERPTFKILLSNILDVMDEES

Row | DC50 [nM] | Compound
1 | < 100 | CC(C)(C)c1nc(C(=O)NCc2ccc(-c3ncnn4cc(-c5ccc(OCCN6CCC(c7ccc(NC8CCC(=O)NC8=O)nc7)CC6)cc5)cc34)cc2F)no1 (stereo not drawn) [Example 110, 5-tert-butyl-N-[[4-[6-[4-[2-[4-[6-[(2,6-dioxo-3-piperidyl)amino]-3-pyridyl]-1-piperidyl]ethoxy]phenyl]pyrrolo[2,1-f][1,2,4]triazin-4-yl]-2-fluoro-phenyl]methyl]-1,2,4-oxadiazole-3-carboxamide]
2 | < 100 | Cc1cc(-c2ccnc3cn(-c4ccc(CN5CCC(c6ccc(NC7CCC(=O)NC7=O)cc6)CC5)cc4)nc23)ccc1CNC(=O)c1noc(C(C)(C)C)n1 (stereo not drawn) [Example 223, 5-tert-butyl-N-[[4-[2-[4-[[4-[4-[(2,6-dioxo-3-piperidyl)amino]phenyl]-1-piperidyl]methyl]phenyl]pyrazolo[4,3-b]pyridin-7-yl]-2-methyl-phenyl]methyl]-1,2,4-oxadiazole-3-carboxamide]
3 | < 100 | Cc1cc(-c2ncnn3cc(-c4ccc(CN5CCC(c6ccc(NC7CCC(=O)NC7=O)cc6)CC5)cc4)cc23)ccc1CNC(=O)c1ccc(C(F)(F)F)cc1 (stereo not drawn) [Example 73, N-[[4-[6-[4-[[4-[4-[(2,6-dioxo-3-piperidyl)amino]phenyl]-1-piperidyl]methyl]phenyl]pyrrolo[2,1-f][1,2,4]triazin-4-yl]-2-methyl-phenyl]methyl]-4-(trifluoromethyl)benzamide]
4 | 100 to 500 | COc1cc(CN2CCC(c3ccc(C4CCC(=O)NC4=O)cc3)CC2)ccc1OCCOc1cccc(-c2cc3c(-c4ccc(CNC(=O)c5noc(C(C)(C)C)n5)c(C)c4)ncnn3c2)c1 (stereo not drawn) [Example 204]
5 | < 100 | Cc1ccc(C(=O)NCc2ccc(-c3ncnn4cc(-c5ccc(CN6CCC(c7ccc(NC8CCC(=O)NC8=O)cc7)CC6)cc5)cc34)cc2C)nc1 (stereo not drawn) [Example 87, N-[[4-[6-[4-[[4-[4-[(2,6-dioxo-3-piperidyl)amino]phenyl]-1-piperidyl]methyl]phenyl]pyrrolo[2,1-f][1,2,4]triazin-4-yl]-2-methyl-phenyl]methyl]-5-methyl-pyridine-2-carboxamide]
6 | < 100 | CC(C)(C)c1nc(C(=O)NCc2ccc(-c3ncnn4cc(-c5ccc(CN6CCC(c7ccc(C8CCC(=O)NC8=O)cc7)CC6)cc5)cc34)cc2Cl)no1 (stereo not drawn) [Example 46, 5-tert-butyl-N-[[2-chloro-4-[6-[4-[[4-[4-(2,6-dioxo-3-piperidyl)phenyl]-1-piperidyl]methyl]phenyl]pyrrolo[2,1-f][1,2,4]triazin-4-yl]phenyl]methyl]-1,2,4-oxadiazole-3-carboxamide]
7 | < 100 | Cc1c(NC(=O)c2cc3c(s2)CCCC3)cc(F)cc1-c1ncnn2cc(-c3ccc(CN4CCC(c5ccc(NC6CCC(=O)NC6=O)cc5)CC4)cc3)cc12 (stereo not drawn) [Example 152, N-(3-(6-(4-((4-(4-((2,6-dioxopiperidin-3-yl)amino)phenyl)piperidin-1-yl)methyl)phenyl)pyrrolo[2,1-f][1,2,4]triazin-4-yl)-5-fluoro-2-methylphenyl)-4,5,6,7-tetrahydrobenzo[b]thiophene-2-carboxamide]
8 | < 100 | CC(C)(C)c1nc(C(=O)NCc2ccc(-c3ncnn4cc(-c5ccc(CN6CCCC(c7ccc(OC8CCC(=O)NC8=O)cc7)C6)cn5)cc34)cc2F)no1 (stereo not drawn) [Example 236, 5-(tert-butyl)-N-(4-(6-(5-((3-(4-((2,6-dioxopiperidin-3-yl)oxy)phenyl)piperidin-1-yl)methyl)pyridin-2-yl)pyrrolo[2,1-f][1,2,4]triazin-4-yl)-2-fluorobenzyl)-1,2,4-oxadiazole-3-carboxamide]
9 | < 100 | Cc1cc(-c2ncnn3cc(N4CCN(C(=O)C5CCOC5CNC(=O)c5ccc(OC6CCC(=O)NC6=O)cc5)CC4)cc23)ccc1CNC(=O)c1noc(C(C)(C)C)n1 (stereo not drawn) [Example 187, 5-(tert-butyl)-N-(4-(6-(4-(2-((4-((2,6-dioxopiperidin-3-yl)oxy)benzamido)methyl)tetrahydrofuran-3-carbonyl)piperazin-1-yl)pyrrolo[2,1-f][1,2,4]triazin-4-yl)-2-methylbenzyl)-1,2,4-oxadiazole-3-carboxamide]
10 | < 100 | Cn1nc(N2CCC(=O)NC2=O)c2ccc(C3CCN(Cc4ccc(-c5cc6nccc(-c7ccc(CNC(=O)c8noc(C(C)(C)C)n8)c(F)c7)n6n5)cc4F)CC3)cc21 [Example 166, 5-tert-butyl-N-[[4-[2-[4-[[4-[3-(2,4-dioxohexahydropyrimidin-1-yl)-1-methyl-indazol-6-yl]-1-piperidyl]methyl]-3-fluoro-phenyl]pyrazolo[1,5-a]pyrimidin-7-yl]-2-fluoro-phenyl]methyl]-1,2,4-oxadiazole-3-carboxamide]
11 | < 100 | Cc1cc(-c2ncnn3cc(CN(C)CCN4CCC(c5ccc(C6CCC(=O)NC6=O)cc5)CC4)cc23)ccc1CNC(=O)c1noc(C(C)(C)C)n1 (stereo not drawn) [Example 125, 5-tert-butyl-N-[[4-[6-[[2-[4-[4-(2,6-dioxo-3-piperidyl)phenyl]-1-piperidyl]ethyl-methyl-amino]methyl]pyrrolo[2,1-f][1,2,4]triazin-4-yl]-2-methyl-phenyl]methyl]-1,2,4-oxadiazole-3-carboxamide]
12 | < 100 | Cc1cc(-c2ccnc3cc(-c4ccc(CN5CCC(c6ccc(NC7CCC(=O)NC7=O)cc6)CC5)cc4)nn23)ccc1CNC(=O)c1noc(C(C)(C)C)n1 (stereo not drawn) [Example 162, 5-tert-butyl-N-[[4-[2-[4-[[4-[4-[(2,6-dioxo-3-piperidyl)amino]phenyl]-1-piperidyl]methyl]phenyl]pyrazolo[1,5-a]pyrimidin-7-yl]-2-methyl-phenyl]methyl]-1,2,4-oxadiazole-3-carboxamide]
13 | < 100 | Cn1nc(N2CCC(=O)NC2=O)c2ccc(C3CCN(Cc4ccc(-c5cc6c(-c7ccc(CNC(=O)c8noc(C(C)(C)C)n8)c(F)c7)ncnn6c5)c(F)c4)CC3)cc21 [Example 242, 5-(tert-butyl)-N-(4-(6-(4-((4-(3-(2,4-dioxotetrahydropyrimidin-1(2H)-yl)-1-methyl-1H-indazol-6-yl)piperidin-1-yl)methyl)-2-fluorophenyl)pyrrolo[2,1-f][1,2,4]triazin-4-yl)-2-fluorobenzyl)-1,2,4-oxadiazole-3-carboxamide]

Row | Compound | DC50 [nM]
14 | Cc1cc(-c2ncnn3cc(-c4ccc(OCCCCN5CCC(c6ccc(NC7CCC(=O)NC7=O)cc6)CC5)cc4)cc23)ccc1CNC(=O)c1noc(C(C)(C)C)n1 (stereo not drawn) [Example 113, -tert-butyl-N-[[4-[6-[4-[4-[4-[4-[(2,6-dioxo-3-piperidyl)amino]phenyl]-1-piperidyl]butoxy]phenyl]pyrrolo[2,1-f][1,2,4]triazin-4-yl]-2-methyl-phenyl]methyl]-1,2,4-oxadiazole-3-carboxamide] | < 100
15 | Cc1cc(-c2ncnn3cc(OCCCN4CCC(c5ccc6c(N7CCC(=O)NC7=O)nn(C)c6c5)CC4)cc23)ccc1CNC(=O)N1CC(OC(C)(C)C)C1 [Example 293, 3-(tert-butoxy)-N-(4-(6-(3-(4-(3-(2,4-dioxotetrahydropyrimidin-1(2H)-yl)-1-methyl-1H-indazol-6-yl)piperidin-1-yl)propoxy)pyrrolo[2,1-f][1,2,4]triazin-4-yl)-2-methylbenzyl)azetidine-1-carboxamide] | < 100
